Assay results: paper PMC8635421, “Illumination of serotonin transporter mechanism and role of the allosteric site” (Science Advances, 2021)

How the values were obtained:
SERT [1] = target: T1, SERT (Homo sapiens, UniProt P31645); assay: biochemical; assay type: binding; details: competition with [3H]paroxetine, SERT in nanodiscs, 100 mM NaCl, 20 nM [3H]paroxetine, n = 3 technical replicates
T1 construct: N- and C-terminally truncated but otherwise wild-type (ΔN72, ΔC13); GFP (C); Strep tag (purification tag); made in house; host or cells: HEK-293S GnTI- cells, baculovirus-mediated transduction
Method: (§1) All the competition-binding experiments were performed using scintillation proximity assays (SPAs) ([58]) with Cu-YSi beads (1 mg ml^−1) in SPA buffer containing 20 mM tris-HCl (pH 8), 100 mM NaCl, or 100 mM KCl. […] For the [^3H]paroxetine experiments, 1 nM SERT was used along with 0.3 μM to 10 mM of the cold competitors and 20 nM [^3H]paroxetine. […] Experiments were measured in triplicate. The error bars for each data point represent the SEM Ki values and were determined with the Cheng-Prusoff equation ([59]) in GraphPad Prism.

SERT allosteric site = target: T2, SERT allosteric site (Homo sapiens, UniProt P31645, I291A/T439S); assay: [3H]VLZ competition binding (SPA) in the presence of imipramine, allosteric site; details: 800 nM [3H]VLZ and 800 nM imipramine, NaCl; read-out: Ki, competition with [3H]VLZ (affinity for the allosteric site)
T2 construct: GFP (C); Strep tag (purification tag); made in house; host or cells: HEK-293S GnTI- cells, baculovirus-mediated transduction
Method: as §1

SERT [2] = target: T1, SERT; assay: Uptake of 3H-labeled N-indole methyl derivative in HEK-293S GnTI- cells transduced with ΔN72/C13 SERT; assay type: cell-based; details: 3H-labeled compound, fig. S3H
Method: To measure the uptake of the N-indole methyl derivative, 1 × 10^5 HEK-293S GnTI^− cells were transduced with viruses for ΔN72/C13 SERT. The cells were plated into 96-well plates coated with poly-D-lysine. After 24 hours, cells were washed with uptake buffer [25 mM Hepes-tris (pH 7), 130 mM NaCl, 5.4 mM KCl, 1.2 mM CaCl2, 1.2 mM MgSO4, 1 mM ascorbic acid, and 5 mM glucose]. The custom-synthesized [^3H]3-(2-aminoethyl)-1-methyl-1H-indol-5-ol hydrochloride isotope was diluted 1:1000 with unlabeled ligand, and a final concentration 0.78 to 100 μM was added to the cells. Uptake was stopped at 5 min by rapidly washing cells three times with 100 μl of uptake buffer, solubilizing with 20 μl of 1% Triton-X100, followed by addition of 200 μl of scintillation fluid to each well. A final concentration of 100 μM S-citalopram was added to the cells to estimate nonspecific counts. The amount of labeled 3-(2-aminoethyl)-1-methyl-1H-indol-5-ol hydrochloride was measured by counting in a standard 96-well plate using a MicroBeta scintillation counter.

T1 sequence (P31645 73-617 limits assumed): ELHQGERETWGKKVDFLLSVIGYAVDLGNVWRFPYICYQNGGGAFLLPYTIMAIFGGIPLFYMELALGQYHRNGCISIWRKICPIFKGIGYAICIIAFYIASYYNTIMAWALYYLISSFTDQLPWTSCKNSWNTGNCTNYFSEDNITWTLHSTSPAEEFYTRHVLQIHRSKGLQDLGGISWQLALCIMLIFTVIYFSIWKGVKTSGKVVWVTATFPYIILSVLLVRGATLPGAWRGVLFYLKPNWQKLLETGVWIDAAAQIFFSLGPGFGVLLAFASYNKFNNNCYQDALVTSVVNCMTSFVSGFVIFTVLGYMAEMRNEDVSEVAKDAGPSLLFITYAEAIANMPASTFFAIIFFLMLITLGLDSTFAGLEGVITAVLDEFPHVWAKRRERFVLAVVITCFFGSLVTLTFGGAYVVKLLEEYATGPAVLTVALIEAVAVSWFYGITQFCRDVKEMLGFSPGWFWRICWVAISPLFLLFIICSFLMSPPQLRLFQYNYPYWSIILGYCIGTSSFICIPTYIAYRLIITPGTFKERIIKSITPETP
T2 sequence (P31645 whole entry I291A/T439S): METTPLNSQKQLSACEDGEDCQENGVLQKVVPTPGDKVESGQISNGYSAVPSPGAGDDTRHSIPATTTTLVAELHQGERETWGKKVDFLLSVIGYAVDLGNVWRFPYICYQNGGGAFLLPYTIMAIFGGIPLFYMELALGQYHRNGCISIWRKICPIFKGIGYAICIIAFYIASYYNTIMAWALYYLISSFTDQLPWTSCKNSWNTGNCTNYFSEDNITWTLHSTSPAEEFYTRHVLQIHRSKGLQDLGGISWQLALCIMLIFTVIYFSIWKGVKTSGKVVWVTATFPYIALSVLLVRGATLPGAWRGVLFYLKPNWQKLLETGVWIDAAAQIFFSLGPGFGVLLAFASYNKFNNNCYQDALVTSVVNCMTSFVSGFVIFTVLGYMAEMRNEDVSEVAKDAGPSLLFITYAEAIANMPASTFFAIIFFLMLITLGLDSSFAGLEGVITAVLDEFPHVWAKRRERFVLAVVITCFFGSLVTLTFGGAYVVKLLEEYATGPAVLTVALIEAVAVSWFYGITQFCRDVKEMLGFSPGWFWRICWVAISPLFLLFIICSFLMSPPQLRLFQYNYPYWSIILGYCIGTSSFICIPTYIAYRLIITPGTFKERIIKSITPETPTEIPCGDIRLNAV

Row | SMILES | Ki (SERT [1]) [µM] | Ki (SERT allosteric site) [µM] | substrate for SERT (uptake) (SERT [2])
1 | Cl.Cn1cc(CCN)c2cc(O)ccc21 [3-(2-aminoethyl)-1-methyl-1H-indol-5-ol hydrochloride] | 5.4 ± 1 | 24.9 ± 5.4 | robust substrate
2 | CNCCc1c[nH]c2ccc(OC)cc12 [5-methoxy-N-methyltryptamine] | 3.9 ± 0.9 | – | –
3 | CNCCc1c[nH]c2ccc(O)cc12 [N-ω-methyl-5-hydroxytryptamine] | 2.8 ± 0.9 | – | –
